Results on nine compounds are retold here after patent US20210087217A1, “NUCLEOTIDE HEMI-SULFATE SALT FOR THE TREATMENT OF HEPATITIS C VIRUS” (Atea Pharmaceuticals, Inc., priority 2017, published 2021).

Series [1] can be described thus: Storage of Compound 1 forms and amorphous salts at 25° C./60% RH for 14 days (HPLC, XRPD, observation). The settings on record: for Physical/chemical stability and appearance on storage: 25° C./60% RH, 14 days. Here is the method: This initial characterization was followed by storage at 25° C./60% relative humidity (RH) for 14 days with analysis by […] and XRPD after 7 and 14 days. FIG. 4A is the XRPD after 14 days at 25° C./60% (RH).
The samples were then frozen with the solvent removed by lyophilization.
The samples were then subjected to storage at 25° C./60% relative humidity (RH) for 14 days with analysis by HPLC and XRPD after 7 (FIG. 4B) and 14 days (FIG. 5A).

A short description of series [2]: Plasma profiles of Compound 2 metabolites in rats. The settings on record: male, Sprague-Dawley, rat, plasma, po, 500 mg/kg. On the procedure:
The results for a single 500 mg/kg dose in rats is shown in FIG. 17 and the results for a single 30, 100, or 300 mg/kg dose in monkeys is shown in FIG. 18.

A short description of series [3]: Plasma profiles of Compound 2 metabolites in monkeys. In kind it is in vivo, cynomolgus monkeys. Conditions: cynomolgus monkey, plasma, po.
A short description of series [4]: Single ascending dose study of Compound 2 in GT1-HCV infected patients (Part B): safety, tolerability, pharmacokinetic. In kind it is in vivo, human. The settings on record: human; for Cmax / AUC / half-life / Tmax: in vivo; for Cmax / AUC / half-life / concentration at 24 h: GT1-HCV infected patients, mean±SD; for concentration at 24 h: plasma, oral, read-out: C24h. Here is the method:
Subjects in Part B received a single dose of Compound 2 in the fasting state. Patients were confined to the clinic from Day −1 to Day 6.
Part B was initiated after the safety (through Day 5) and plasma pharmacokinetic (through 24 h) data review from Cohort 3a in Part A. Available safety data (through Day 5) and pharmacokinetic data (through 24 h) was reviewed for the first cohort in Part B (Cohort 1b) before enrolling subsequent Part B cohorts. Subsequent Part B cohorts were only dosed following review of available safety and pharmacokinetic data from the respective doses in Part A as well as available safety (through Day 5) from the prior Part B cohorts.
Patients infected with HCV were treatment-naïve, non-cirrhotic GT1-infected subjects with a viral load of ≥5 log10 IU/mL.
(§1) Pharmacokinetic of Compound 1 and nucleoside metabolite 1-7 were measured following the single dose of Compound 2. […] Values are reported as mean±SD, except or Tmax where median (range) is reported.
Plasma exposure of Compound 1 was dose-related while exposure of metabolite 1-7 was dose-proportional.

The nature of series [5]: Single ascending dose study of Compound 2 in healthy volunteers (Part A): safety, tolerability, pharmacokinetic. The class given is in vivo, human. Conditions: both sexes, human, plasma, oral; for concentration at 24 h: read-out: C24h. Here is the method:
Compound 2 was tested in a single ascending dose (SAD) study to measure its safety, tolerability, and pharmacokinetic in healthy subjects (Part A). Part A was a randomized, double-blind, placebo-controlled SAD study. Healthy subjects in Part A received a single dose of Compound 2 or placebo in the fasting state. Subjects were confined to the clinic from Day −1 to Day 6.
Dosing in each cohort was staggered such that 2 subjects (1 active:1 placebo) were evaluated for 48 hours after dosing before the remainder of the cohort was dosed. Each cohort received Compound 2 in ascending order. Dosing of sequential cohorts occurred based on review of available safety data (through Day 5) and plasma pharmacokinetic data (through 24 h) of the prior cohort.
As pharmacokinetic and safety data emerged from prior cohorts, doses evaluated in Cohorts 3a-4a were adjusted by increments no more than 100 mg.
Healthy volunteers in the Part A portion of the study were male and female subjects between the ages of 18 and 65. Active and placebo recipients were pooled within each Part A cohort to preserve the study blind.
as §1

[6] abbreviates: 100 mg, Compound 2 100 mg, based on 24-hr profile.
The mark [7] stands for this setting: 300 mg, Compound 2 300 mg (first 300 mg line).
[8] abbreviates: 300 mg, Compound 2 300 mg (first 300 mg line), based on 24-hr profile.
The mark [9] stands for this setting: 300 mg, Compound 2 300 mg (second 300 mg line).

Entries after “also recorded” stand apart in the source; their conditions may differ. Structures can show the parent of a compound that is named as a salt. Where two headings read alike, the source gives them in different places.

In the case of `CNc1nc(N)nc2c1ncn2[C@@H]1O[C@H](CO[P@@](=O)(N[C@@H](C)C(=O)OC(C)C)Oc2ccccc2)[C@@H](O)[C@@]1(C)F` [Compound 3, mono-sulfate salt of isopropyl((S)-(((2R,3R,4R,5R)-5-(2-amino-6-(methylamino)-9H-purin-9-yl)-4-fluoro-3-hydroxy-4-methyltetrahydrofuran-2-yl)methoxy)(phenoxy)phosphoryl)-L-alaninate], the “Physical/chemical stability and appearance on storage” value in series [1] is “unstable; also recorded: not physically stable”.
Take `CNc1nc(N)nc2c1ncn2[C@@H]1O[C@H](CO[P@@](=O)(N[C@@H](C)C(=O)OC(C)C)Oc2ccccc2)[C@@H](O)[C@@]1(C)F` [Compound 5]: the “Hygroscopicity” value in series [1] (listed as HCl salt) is “more hydroscopic than the hemisulfate salt”.
For the compound `C[C@@]1(F)[C@H](O)[C@@H](CO)O[C@H]1n1cnc2c(=O)[nH]c(N)nc21` [Metabolite 1-7, 2-amino-9-((2R,3R,4R,5R)-3-fluoro-4-hydroxy-5-(hydroxymethyl)-3-methyltetrahydrofuran-2-yl)-1,9-dihydro-6H-purin-6-one], the AUC(0-t) was 9640 ng·h/mL in series [2], 1620 ng·h/mL in series [3] (30 mg/kg), 3030 ng·h/mL in series [3] (100 mg/kg) and 3660 ng·h/mL in series [3] (300 mg/kg). Further, the Cmax in series [2] is 541 ng/mL; in series [3] (30 mg/kg), 42.5 ng/mL; in series [3] (100 mg/kg) it was 131 ng/mL; in series [3] (300 mg/kg) it was 93.6 ng/mL; in series [4] (100 mg, Compound 2 100 mg), 50.2 ± 15.4 ng/mL; in series [4] (setting [7]) it was 96.9 ± 38.9 ng/mL. Further, the Cmax came out at 123 ± 16.6 ng/mL in series [4] (setting [9]); 160 ± 36.7 ng/mL in series [4] (400 mg, Compound 2 400 mg); 198 ± 19.3 ng/mL in series [4] (600 mg, Compound 2 600 mg); 27.9 ± 5.62 ng/mL in series [5] (50 mg); 56.6 ± 14 ng/mL in series [5] (100 mg); 111 ± 38.8 ng/mL in series [5] (200 mg). The compound also yielded a Cmax in series [5] (400 mg) of 153 ± 49.4 ng/mL. Also, the Tmax is 6 to 8 h in series [2]; 12 to 24 h in series [3] (30 mg/kg); 4 to 24 h in series [3] (300 mg/kg); 6 h in series [4] (100 mg, Tmax); 4.0 (3.0-6.0) h in series [4] (300 mg); 6 h in series [4] (300 mg, Tmax). The Tmax in series [5] (50 mg) was determined as 3.5 h. In addition, the half-life in series [2] was 918 min; in series [3] (30 mg/kg), 690 min; in series [3] (100 mg/kg), 900 min; in series [3] (300 mg/kg) it was 1130 min; in series [4] (setting [6]), 504 ± 258 min; in series [4] (setting [8]) it was 486 ± 144 min. Further, the half-life in series [4] (400 mg, Compound 2 400 mg) is 696 ± 72.6 min; in series [5] (50 mg), 424 ± 275 min; in series [5] (100 mg) it was 1060 ± 882 min; in series [5] (200 mg) it was 954 ± 477 min; in series [5] (400 mg) it was 936 ± 382 min. Also, the AUC is 538 ± 103 ng·h/mL in series [4] (setting [6]); 1130 ± 273 ng·h/mL in series [4] (setting [8]); 1420 ± 221 ng·h/mL in series [4] (setting [9]); 2130 ± 120 ng·h/mL in series [4] (400 mg, Compound 2 400 mg); 2180 ± 116 ng·h/mL in series [4] (600 mg, Compound 2 600 mg); 285 ± 69.4 ng·h/mL in series [5] (50 mg). The AUC in series [5] (100 mg) is 663 ± 242 ng·h/mL; in series [5] (200 mg), 1520 ± 497 ng·h/mL; in series [5] (400 mg), 2340 ± 598 ng·h/mL. The concentration at 24 h in series [4] (100 mg, Compound 2 100 mg) was 3.6 ± 0.4 ng/mL; in series [4] (setting [7]), 10.9 ± 3.51 ng/mL; in series [4] (setting [9]) it was 18 ± 8.83 ng/mL; in series [4] (400 mg, Compound 2 400 mg), 22.5 ± 3.29 ng/mL; in series [4] (600 mg, Compound 2 600 mg) it was 25.8 ± 4.08 ng/mL; in series [5] (50 mg), 2.28 ± 0.95 ng/mL. For the same compound, the concentration at 24 h in series [5] (100 mg) worked out at 4.45 ± 1.87 ng/mL; in series [5] (200 mg) it was 13.7 ± 5.09 ng/mL; in series [5] (400 mg), 23.5 ± 6.31 ng/mL.
As to `CNc1nc(N)nc2c1ncn2[C@@H]1O[C@H](CO[P@@](=O)(N[C@@H](C)C(=O)OC(C)C)Oc2ccccc2)[C@@H](O)[C@@]1(C)F` [Sample 1-1], the HPLC purity in series [1] (0 days at 25° C./60% RH) was 98.6; in series [1] (7 days at 25° C./60% RH) it was 98.7; in series [1] (14 days at 25° C./60% RH), 98.5. The Observation result in series [1] (0 days at 25° C./60% RH), in series [1] (7 days at 25° C./60% RH) and in series [1] (14 days at 25° C./60% RH) was “White solid” throughout. For the same compound, the “Physical/chemical stability and appearance on storage” value in series [1] is “stable”.
Turning to `CNc1nc(N)nc2c1ncn2[C@@H]1O[C@H](CO[P@@](=O)(N[C@@H](C)C(=O)OC(C)C)Oc2ccccc2)[C@@H](O)[C@@]1(C)F` [Sample 1-2], the HPLC purity came to 99.1 in series [1] (0 days at 25° C./60% RH), 99.2 in series [1] (7 days at 25° C./60% RH) and 99.0 in series [1] (14 days at 25° C./60% RH). For the same compound, the Observation result in series [1] (0 days at 25° C./60% RH), in series [1] (7 days at 25° C./60% RH) and in series [1] (14 days at 25° C./60% RH) was “White solid” in each case. The “Physical/chemical stability and appearance on storage” value in series [1] is reported as “stable”.
Regarding `CNc1nc(N)nc2c1ncn2[C@@H]1O[C@H](CO[P@@](=O)(N[C@@H](C)C(=O)OC(C)C)Oc2ccccc2)[C@@H](O)[C@@]1(C)F` [Sample 1-3], the HPLC purity is listed as 99.7 in series [1] (0 days at 25° C./60% RH), 99.6 in series [1] (7 days at 25° C./60% RH) and 99.4 in series [1] (14 days at 25° C./60% RH). In addition, the Observation entry in series [1] (0 days at 25° C./60% RH), in series [1] (7 days at 25° C./60% RH) and in series [1] (14 days at 25° C./60% RH) was “White solid” throughout.
In the case of `CNc1nc(N)nc2c1ncn2C1OC(COP(=O)(NC(C)C(=O)OC(C)C)Oc2ccccc2)C(O)C1(C)F.Cl` (stereo not drawn) [Sample 1-4], in series [1], the “Hygroscopicity” value was “hygroscopic”. In addition, the HPLC purity in series [1] (0 days at 25° C./60% RH) was 98.7; in series [1] (7 days at 25° C./60% RH), 98.8; in series [1] (14 days at 25° C./60% RH) it was 98.6. In addition, the Observation entry in series [1] (0 days at 25° C./60% RH), in series [1] (7 days at 25° C./60% RH) and in series [1] (14 days at 25° C./60% RH) was “White solid” in each case. The “Physical/chemical stability and appearance on storage” value in series [1] is “physically and chemically stable”.
As to `CNc1nc(N)nc2c1ncn2C1OC(COP(=O)(NC(C)C(=O)OC(C)C)Oc2ccccc2)C(O)C1(C)F.O=S(=O)(O)O` (stereo not drawn) [Sample 1-5], the HPLC purity in series [1] (0 days at 25° C./60% RH) worked out at 98.4; in series [1] (7 days at 25° C./60% RH), 55.7. Moreover, the Observation result in series [1] (0 days at 25° C./60% RH) is reported as “White solid”; in series [1] (7 days at 25° C./60% RH) it was “Sticky white”; in series [1] (14 days at 25° C./60% RH) it was “Sticky gum”. Besides, the “Physical/chemical stability and appearance on storage” value in series [1] is on record as “physically unstable”.
In the case of `CNc1nc(N)nc2c1ncn2C1OC(COP(=O)(NC(C)C(=O)OC(C)C)Oc2ccccc2)C(O)C1(C)F.CNc1nc(N)nc2c1ncn2C1OC(COP(=O)(NC(C)C(=O)OC(C)C)Oc2ccccc2)C(O)C1(C)F.O=S(=O)(O)O` (stereo not drawn) [Sample 1-9], the HPLC purity was determined as 98.7 in series [1] (0 days at 25° C./60% RH), 98.1 in series [1] (7 days at 25° C./60% RH) and 96.4 in series [1] (14 days at 25° C./60% RH). For the same compound, the Observation entry in series [1] (0 days at 25° C./60% RH), in series [1] (7 days at 25° C./60% RH) and in series [1] (14 days at 25° C./60% RH) was “White solid” in each case. Also, in series [1], the “Physical/chemical stability and appearance on storage” value is “physically and chemically stable”.
